Where two headings read alike, the source gives them in different places.
Experiment: Plasma pharmacokinetics after single and repeated oral doses
Type: in vivo, healthy adult participants (human)
Conditions: for Time to steady state (Tss), 50% median, point estimate / Time to steady state (Tss), 90% quantile, point estimate: overall; for AUC / AUC(0-t) / Cmax / Tmax / Vd/F: human, plasma, oral; for Vd/F: read-out: Vz/F, mean
Procedure: In Part 1a, plasma samples were collected before dosing and at 10 post-dose timepoints on Day 1 (30 minutes, 1 hour, followed by every hour until 6 hours, and then every 2 hours until 12 hours), and single samples on Day 2 (at 24 hours) and Day 3 (at 48 hours). In Part 1b, timepoints included at least pre-dose and at 10 post-dose timepoints, including plasma sampling at the same time of CSF sampling. In Part 2, on Day 1 and Day 14, plasma samples were collected at pre-dose and at 10 to 11 post-dose timepoints. In addition, plasma samples were collected on Days 2, 3, 5, 7, 11, 15, 16, and 17.
PK population included all participants exposed to Compound 1 with no major or critical deviations related to Compound 1 and for whom PK data were considered sufficient and interpretable. PK parameters were summarized by descriptive statistics for each dose level group. Distribution of Tmax values was represented by histogram plots for each dose level group. In Part 1a, dose proportionality was assessed using a linear model on Cmax, AUClast and AUC. In Part 2, all PK analyses were performed separately for each regimen (OD and BID). Steady state was assessed on Ctrough using a non-linear model. Accumulation was assessed using a linear model on log-transformed accumulation ratio. Dose proportionality was assessed using a power model on Cmax and AUCtau on Day 1 and Day 14, separately. Variance components of log-transformed Cmax and AUCtau were estimated using a linear model. In Part 1b, CSF concentration was described by dose level group and CSF to plasma unbound concentration ratios calculated were described in the same way. 4β-hydroxycholesterol on Day 14 versus Day 1 pre-dose concentration ratios were summarized using descriptive statistics by dose level group and point estimates with 90% confidence interval (90% CI) for the geometric mean of the log-transformed Day14/Day1 ratio was calculated in Part 2.

[1] = Part 2, cohorts at 10 and 20 mg QD
[2] = Part 2, cohorts at 15 and 20 mg BID
[3] = Part 2 Day 1, 10 mg QD, tau 24 hours
[4] = Part 2 Day 1, 15 mg BID, fasted
[5] = Part 2 Day 1, 20 mg BID, fasted
[6] = Part 2 Day 1, 20 mg BID, tau 12 hours
[7] = Part 2 Day 14 steady state, 10 mg QD
[8] = Part 2 Day 14 steady state, 15 mg BID
[9] = Part 2 Day 14 steady state, 20 mg BID
[10] = Part 2 Day 14 steady state, 20 mg QD
[11] = Part 2 Day 14 steady state, 20 mg QD, tau 24 hours

## CC(C)(C(=O)N1CCOc2c(C#N)cncc2C1)C(F)F [Compound 1, 4-(3,3-difluoro-2,2-dimethyl-propanoyl)-3,5-dihydro-2H-pyrido[3,4-f] [1,4]oxazepine-9-carbonitrile]
[1]
  Time to steady state (Tss), 50% median, point estimate: 1.81 days
  Time to steady state (Tss), 90% quantile, point estimate: 2.45 days
[2]
  Time to steady state (Tss), 50% median, point estimate: 1.43 days
  Time to steady state (Tss), 90% quantile, point estimate: 1.65 days
Part 2 Day 1, 10 mg QD, fasted
  Cmax, Gmean: (157) [20.7] ng/mL
  Tmax, median: 1.00 h
[3]
  AUCtau, Gmean: (1080) h*ng/ml
  AUCtau, mean ± SD: 1110 ± 268 ng·h/mL
[4]
  Cmax, Gmean: (211) [44.2] ng/mL
  Tmax, median: 1.00 h
Part 2 Day 1, 15 mg BID, tau 12 hours
  AUCtau, Gmean: (1100) [33.1] h*ng/ml
[5]
  Cmax, Gmean: (205) [20.3] ng/mL
  Cmax, mean ± SD: 209 ± 42.4 ng/mL
  Tmax, median: 2.00 h
[6]
  AUCtau, Gmean: (1350) h*ng/ml
  AUCtau, mean ± SD: 1370 ± 252 ng·h/mL
Part 2 Day 1, 20 mg QD, fasted
  Cmax, Gmean: (240) [20.2] ng/mL
  Tmax, median: 1.50 h
Part 2 Day 1, 20 mg QD, tau 24 hours
  AUCtau, Gmean: (1860) [22.5 h*ng/ml
Part 2 Day 14, 10 mg QD
  CLSS/F, Gmean: (7.08) [25.9] L/h
  CLSS/F, mean ± SD: 7.30 ± 1.89 L/h
  Ctrough, Gmean: (19.9) [57.0] ng/mL
  Ctrough, mean ± SD: 22.8 ± 13.0 ng/mL
  T1/2z, Gmean: (8.87) [23.2] h
  T1/2z, mean ± SD: 9.07 ± 2.11 h
Part 2 Day 14, 15 mg BID
  CLSS/F, Gmean: (9.16) [30.0] L/h
  CLSS/F, mean ± SD: 9.54 ± 2.86 L/h
  Ctrough, Gmean: (79.3) [33.0] ng/mL
  Ctrough, mean ± SD: 83.7 ± 27.4 ng/mL
  T1/2z, Gmean: (7.21) [15.6] h
  T1/2z, mean ± SD: 7.29 ± 1.14 h
Part 2 Day 14, 20 mg BID
  CLSS/F, Gmean: (9.27) [24.9] L/h
  CLSS/F, mean ± SD: 9.53 ± 2.37 L/h
  Ctrough, Gmean: (99.3) [40.0] ng/mL
  Ctrough, mean ± SD: 107 ± 42.7 ng/mL
  T1/2z, Gmean: (7.37) [23.0] h
  T1/2z, mean ± SD: 7.54 ± 1.74 h
Part 2 Day 14, 20 mg QD
  CLSS/F, Gmean: (9.40) [22.2] L/h
  CLSS/F, mean ± SD: 9.60 ± 2.14 L/h
  Ctrough, Gmean: (30.4) [49.0] ng/mL
  Ctrough, mean ± SD: 34.2 ± 16.6 ng/mL
  T1/2z, Gmean: (8.53) [19.0] h
  T1/2z, mean ± SD: 8.68 ± 1.65 h
[7]
  Cmax, Gmean: (158) [31.9] ng/mL
  Tmax, median: 1.00 h
Part 2 Day 14 steady state, 10 mg QD, tau 24 hours
  AUCtau, Gmean: (1410) [27.4] h*ng/mL
[8]
  Cmax, Gmean: (268) [36.3] ng/mL
  Tmax, median: 1.00 h
Part 2 Day 14 steady state, 15 mg BID, tau 12 hours
  AUCtau, Gmean: (1640) [32.5] h*ng/mL
[9]
  Cmax, Gmean: (353) [19.9] ng/mL
  Tmax, median: 1.00 h
Part 2 Day 14 steady state, 20 mg BID, tau 12 hours
  AUCtau, Gmean: (2160) [25.9] h*ng/mL
[10]
  Cmax, Gmean: (250) [22.7] ng/mL
  Tmax, median: 2.00 h
[11]
  AUCtau, Gmean: (2130) [21.4] h*ng/mL
  AUCtau, mean ± SD: 2170 ± 465 ng·h/mL
Pooled doses QD
  Accumulation ratio (AUC0-24h), Day 14/Day 1: ~1.22
QD cohorts
  Within-subject variability for AUCtau: 8.0%
  Within-subject variability for Cmax: 15.8%
QD dosing regimen
  Total variability for AUCtau: 21.6%
  Total variability for Cmax: 20.6%
10 mg, Part 1a single 10 mg fasted, read-out: AUC, mean
  AUC: 1250 ng·h/mL
10 mg, Part 1a single 10 mg fasted, read-out: AUClast, mean
  AUC(0-t): 1200 ng·h/mL
10 mg, Part 1a single 10 mg fasted, read-out: Cmax, mean
  Cmax: 119 ng/mL
10 mg, Part 1b single 10 mg fed, read-out: AUC, mean
  AUC: 1460 ng·h/mL
10 mg, Part 1b single 10 mg fed, read-out: AUClast, mean
  AUC(0-t): 1220 ng·h/mL
10 mg, Part 2 Day 1, 10 mg QD, fasted, read-out: Cmax, mean ± SD
  Cmax: 161 ± 33.2 ng/mL
10 mg, Part 2 Day 14 steady state, 10 mg QD, tau 24 hours, read-out: AUCtau, mean ± SD
  AUC: 1460 ± 399 ng·h/mL
10 mg, Part 2 Day 14 steady state, 10 mg QD, read-out: Cmax, mean ± SD
  Cmax: 164 ± 52.3 ng/mL
15 mg, Part 2 Day 1, 15 mg BID, fasted, read-out: Cmax, mean ± SD
  Cmax: 229 ± 101 ng/mL
15 mg, Part 2 Day 1, 15 mg BID, tau 12 hours, read-out: AUCtau, mean ± SD
  AUC: 1150 ± 380 ng·h/mL
15 mg, Part 2 Day 14 steady state, 15 mg BID, tau 12 hours, read-out: AUCtau, mean ± SD
  AUC: 1710 ng·h/mL
15 mg, Part 2 Day 14 steady state, 15 mg BID, read-out: Cmax, mean ± SD
  Cmax: 284 ng/mL
20 mg, 20 mg BID, read-out: AUC0-24 h (corresponding to AUC0-12 h*2)
  AUC(0-t): 15 µM·h
20 mg, 20 mg BID, read-out: Mean observed Cmax
  Cmax: 1220 nM
20 mg, 20 mg QD, MAD study, read-out: Mean observed AUC0-24 at steady state
  AUC(0-t): 7.35 µM·h
20 mg, Part 1a single 20 mg fasted, read-out: Cmax, mean
  Cmax: 245 ng/mL
20 mg, Part 2 Day 1, 20 mg QD, fasted, read-out: Cmax, mean ± SD
  Cmax: 245 ± 49.5 ng/mL
20 mg, Part 2 Day 1, 20 mg QD, tau 24 hours, read-out: AUCtau, mean ± SD
  AUC: 1910 ± 429 ng·h/mL
20 mg, Part 2 Day 14 steady state, 20 mg BID, tau 12 hours, read-out: AUCtau, mean ± SD
  AUC: 2220 ± 574 ng·h/mL
20 mg, Part 2 Day 14 steady state, 20 mg BID, read-out: Cmax, mean ± SD
  Cmax: 359 ± 71.6 ng/mL
20 mg, Part 2 Day 14 steady state, 20 mg QD, read-out: Cmax, mean ± SD
  Cmax: 255 ± 58 ng/mL
30 mg, Part 1a single 30 mg fasted, read-out: AUC, mean
  AUC: 2570 ng·h/mL
30 mg, Part 1a single 30 mg fasted, read-out: AUClast, mean
  AUC(0-t): 2540 ng·h/mL
30 mg, Part 1a single 30 mg fasted, read-out: Cmax, mean
  Cmax: 439 ng/mL
40 mg, Part 1a single 40 mg fasted, read-out: AUC, mean
  AUC: 5460 ng·h/mL
40 mg, Part 1a single 40 mg fasted, read-out: AUClast, mean
  AUC(0-t): 5390 ng·h/mL
40 mg, Part 1a single 40 mg fasted, read-out: Cmax, mean
  Cmax: 576 ng/mL
40 mg, Part 1b single 40 mg fed, read-out: AUC, mean
  AUC: 5060 ng·h/mL
40 mg, Part 1b single 40 mg fed, read-out: AUClast, mean
  AUC(0-t): 4100 ng·h/mL
40 mg, Part 1b single 40 mg fed, read-out: Cmax, mean
  Cmax: 381 ng/mL
Part 1a, single 10 to 40 mg, fasted, read-out: Median tmax across doses
  Tmax: 1 to 1.5 h
Part 2, single or repeated administration, fasted, read-out: Median Tmax across dose levels
  Tmax: 1 to 2 h
Part 1a single 40 mg fasted
  Vd/F: 71.7 L
Part 1b single 10 mg fed
  Vd/F: 86 L
